# Experimental data as given in patent US8586552B2, “4,6-substituted 2,5-dideoxystreptamine aminoglycoside antibiotics” (SelectX Pharmaceuticals, Inc., priority 2012, dated 2013).
# Columns and labels:
# Type in all cases: cell-based
# [1] = tested on: Pseudomonas aeruginosa PR3 (high-level, efflux-mediated, pan-aminoglycoside resistance); test: MIC against Pseudomonas aeruginosa clinical isolate PR3; conditions: for MIC PR3: Pseudomonas aeruginosa resistant strain PR3; for MIC: Pseudomonas aeruginosa, read-out: MIC PR3
# Source text: (§1) Pseudomonas aeruginosa is a prominent nosocomial pathogen. In addition to intrinsic antibiotic resistance to several antibiotics, Pseudomonas has acquired multiple additional mechanisms of resistance. As a result, therapeutic options for the treatment of infections caused by Pseudomonas aeruginosa are limited. We acquired clinical isolates of Pseudomonas aeruginosa (Micromyx LLC, Kalamazoo, Mich.), and used this panel to test compounds for Pseudomonicidal activity. […] For each strain and antibiotic, the mechanism(s) of resistance was inferred from the resistance profile. The presence of specific AGMEs was confirmed by colony PCR.
# [2] = tested on: Pseudomonas aeruginosa PR1 (clinical isolate with intermediate aminoglycoside resistance); test: MIC against Pseudomonas aeruginosa clinical isolate PR1; conditions: Pseudomonas aeruginosa resistant strain PR1
# Source text: as §1
# [3] = tested on: Pseudomonas aeruginosa (Pae, PAWT, ATCC #27853); test: MIC against Pseudomonas aeruginosa reference strain PAWT; conditions: Pseudomonas aeruginosa wild type PAWT; for MIC: ATCC27853
# Source text: (§2) For evaluation of efficacy, we assembled panels of representative gram-negative pathogens, including Pseudomonas aeruginosa (Pae, PAWT, ATCC #27853), Klebsiella pneumoniae (Kpn, KPWT, ATCC #700603), Acinetobacter baumannii (Aba, ABWT, ATCC #BAA-747) and Escherichia coli (Eco, ECWT, ATCC #25922). These reference strains are useful indicator organisms to characterize compound activity against bacteria from a pathogenic genus in the absence of multiple resistance mechanisms. Two strains (PAWT and ECWT) are reference strains cited within the Clinical and Laboratory Standards Institute (CLSI) Standards for susceptibility testing by Minimum Inhibitory Concentration (MIC) (SXPS2) and are well suited for quality control. ABWT and ECWT are widely susceptible to aminoglycoside antibiotics, whereas PAWT and KPWT harbor a single aminoglycoside-modifying enzyme (AGME) that targets 4,6-substituted-2-deoxystreptamine AGs. […]
# [4] = tested on: Pseudomonas aeruginosa PR2 (clinical isolate with intermediate aminoglycoside resistance); test: MIC against Pseudomonas aeruginosa clinical isolate PR2; conditions: Pseudomonas aeruginosa resistant strain PR2
# Source text: as §1
# [5] = tested on: fifty resistant contemporary clinical isolates of Klebsiella pneumoniae; test: MIC90 against panel of resistant clinical isolates of Klebsiella pneumoniae; conditions: Klebsiella pneumoniae; fifty resistant contemporary clinical isolates, reference antibiotics
# Source text: Using this stringent Klebsiella pneumoniae panel, we tested a subset of compounds of the invention.
# [6] = tested on: more than fifty resistant contemporary clinical isolates of Pseudomonas aeruginosa; test: MIC90 against panel of resistant clinical isolates of Pseudomonas aeruginosa; conditions: Pseudomonas aeruginosa
# Source text: To assess this, a panel of more than fifty resistant contemporary clinical isolates of Pseudomonas aeruginosa were obtained from multiple sources including JMI Laboratories (North Liberty, Iowa), Pfizer (Groton, Conn.), Micromyx (Kalamazoo, Mich.), Dr. J. Chow (Wayne State University). Strains were characterized for resistance to a wide variety of classes of antibiotics including aminoglycosides, β-lactams and fluoroquinolones. […] This reflects the difficulty in treating clinical Pseudomonas aeruginosa infections. […] Using this stringent panel, we tested a subset of compounds of the invention (Table 4).
# [7] = tested on: Acinetobacter baumannii (Aba, ABWT, ATCC #BAA-747); test: MIC against Acinetobacter baumannii reference strain ABWT; conditions: for MIC: ATCCBAA747
# Source text: as §2
# [8] = tested on: Klebsiella pneumoniae screening panel KPWT, KR1, KR2, KR3; test: Klebsiella pneumoniae screening panel (KPWT, KR1, KR2, KR3), reference AGs
# Source text: Klebsiella pneumoniae (Kpn) and Escherichia coli (Eco) are gram-negative (like Pae), enteric pathogens with increasing clinical relevance. Many clinical isolates of Kpn and Eco harbor extended-spectrum beta-lactamases and are no longer sensitive to most beta-lactam antibiotics. We acquired clinical isolates of Klebsiella pneumoniae and Escherichia coli (Micromyx LLC, Kalamazoo, Mich.) and used this panel to test compounds for anti-enteric activity.
# [9] = tested on: Klebsiella pneumoniae (Kpn, KPWT, ATCC #700603); test: MIC against Klebsiella pneumoniae reference strain KPWT; conditions: Klebsiella pneumoniae KPWT, Table 2; for MIC: ATCC700603
# Source text: as §2, with “These reference strains are useful indicator organisms to characterize compound activity against bacteria from a pathogenic genus in the absence of multiple resistance mechanisms.” left out
# [10] = tested on: Escherichia coli (Eco, ECWT, ATCC #25922); test: MIC against Escherichia coli reference strain ECWT; conditions: for MIC: ATCC25922
# Source text: For evaluation of efficacy, we assembled panels of representative gram-negative pathogens, including Pseudomonas aeruginosa (Pae, PAWT, ATCC #27853), Klebsiella pneumoniae (Kpn, KPWT, ATCC #700603), Acinetobacter baumannii (Aba, ABWT, ATCC #BAA-747) and Escherichia coli (Eco, ECWT, ATCC #25922). These reference strains are useful indicator organisms to characterize compound activity against bacteria from a pathogenic genus in the absence of multiple resistance mechanisms. Two strains (PAWT and ECWT) are reference strains cited within the Clinical and Laboratory Standards Institute (CLSI) Standards for susceptibility testing by Minimum Inhibitory Concentration (MIC) (SXPS2) and are well suited for quality control. ABWT and ECWT are widely susceptible to aminoglycoside antibiotics, whereas PAWT and KPWT harbor a single aminoglycoside-modifying enzyme (AGME) that targets 4,6-substituted-2-deoxystreptamine AGs.
compound,measurement,setting,value
NCC[C@H](O)C(=O)N[C@@H]1C[C@H](N)[C@@H](O[C@H]2O[C@H](CN)[C@@H](O)[C@H](O)[C@H]2O)[C@@H](F)[C@H]1O[C@H]1O[C@H](CNC(=O)[C@H](N)CCCNC(N)=O)[C@@H](O)[C@H](N)[C@H]1O [SXP1212-56″-7],MIC PR3,[1],128 mg/L
same,MIC PR1,[2],16 mg/L
same,MIC PAWT,[3],4 mg/L
same,MIC PR2,[4],16 mg/L
CC(C)[C@H](N)C(=O)NC[C@H]1O[C@H](O[C@@H]2[C@H](F)[C@H](O[C@H]3O[C@H](CN)[C@@H](O)[C@H](O)[C@H]3O)[C@@H](N)C[C@H]2NC(=O)[C@@H](O)CCN)[C@H](O)[C@@H](N)[C@@H]1O [SXP1212-56″-8],MIC PR3,[1],64 mg/L
same,MIC PR1,[2],8 mg/L
same,MIC PAWT,[3],4 mg/L
same,MIC PR2,[4],8 mg/L
C[C@H]1[C@H](NC(=O)/C(=N\OC(C)(C)C(=O)O)c2csc(N)n2)C(=O)N1S(=O)(=O)O [aztreonam],MIC90,[5],≥ 64 mg/L
same,MIC90,[6],≥ 64 mg/L
CO/N=C(\C(=O)N[C@@H]1C(=O)N2C(C(=O)[O-])=C(C[N+]3(C)CCCC3)CS[C@H]12)c1csc(N)n1 [cefepime],MIC90,[5],≥ 64 mg/L
same,MIC90,[6],≥ 64 mg/L
CC(C)(O/N=C(\C(=O)N[C@@H]1C(=O)N2C(C(=O)[O-])=C(C[n+]3ccccc3)CS[C@H]12)c1csc(N)n1)C(=O)O [ceftazidime],MIC90,[5],≥ 64 mg/L
same,MIC90,[6],≥ 64 mg/L
CO/N=C(\C(=O)N[C@@H]1C(=O)N2C(C(=O)O)=C(CSc3nc(=O)c(=O)[nH]n3C)CS[C@H]12)c1csc(N)n1 [ceftriaxone],MIC90,[5],≥ 64 mg/L
same,MIC90,[6],≥ 64 mg/L
NC[C@@H]1CC[C@@H](N)[C@@H](O[C@H]2[C@H](O)[C@@H](O[C@H]3O[C@H](CO)[C@@H](O)[C@H](N)[C@H]3O)[C@H](N)C[C@@H]2N)O1 [dibekacin],MIC,[7],0.25 mg/L
same,MIC,[1],> 64 mg/L
same,MIC,[2],4 mg/L
same,MIC,[3],0.25 to 0.5 mg/L
same,MIC PAWT,[3]; listed as DIB,0.25 to 0.5 mg/L
same,potency against Klebsiella pneumoniae test panel,[8],limited to no activity
same,MIC,[4],> 64 mg/L
same,MIC,[9],16 mg/L
same,MIC,[10],1 to 2 mg/L
C[C@@H](O)[C@H]1C(=O)N2C(C(=O)O)=C(S[C@@H]3CN[C@H](CNS(N)(=O)=O)C3)[C@H](C)[C@H]12 [doripenem],MIC90,[5],≥ 64 mg/L
same,MIC90,[6],≥ 64 mg/L
C[C@@H](O)[C@H]1C(=O)N2C(C(=O)O)=C(S[C@@H]3CN[C@H](C(=O)Nc4cccc(C(=O)O)c4)C3)[C@H](C)[C@H]12 [ertapenem],MIC90,[5],≥ 64 mg/L
same,MIC90,[6],≥ 64 mg/L
C[C@@H](O)[C@H]1C(=O)N2C(C(=O)O)=C(SCCN=CN)C[C@H]12 [imipenem],MIC90,[5],≥ 64 mg/L
same,MIC90,[6],≥ 64 mg/L
C[C@H]1COc2c(N3CCN(C)CC3)c(F)cc3c(=O)c(C(=O)O)cn1c23 [levofloxacin],MIC90,[5],≥ 64 mg/L
same,MIC90,[6],≥ 64 mg/L
C[C@@H](O)[C@H]1C(=O)N2C(C(=O)O)=C(S[C@@H]3CN[C@H](C(=O)N(C)C)C3)[C@H](C)[C@H]12 [meropenem],MIC90,[5],≥ 64 mg/L
same,MIC90,[6],≥ 64 mg/L
NC[C@@H]1O[C@H](O[C@H]2[C@@H](O)[C@H](O[C@@H]3[C@@H](O)[C@H](N)C[C@H](N)[C@H]3O[C@H]3O[C@H](CN)[C@@H](O)[C@H](O)[C@H]3N)O[C@@H]2CO)[C@H](N)[C@@H](O)[C@@H]1O [neomycin],MIC ABWT,[7],0.25 to 0.5 mg/L
same,MIC PR3,[1],>64 mg/L
same,MIC PR1,[2],32 mg/L
same,MIC PAWT,[3],32 mg/L
same,MIC PR2,[4],8 to 16 mg/L
same,MIC KPWT,[9],4 to 8 mg/L
same,MIC ECWT,[10],1 mg/L
CCN1CCN(C(=O)N[C@@H](C(=O)N[C@@H]2C(=O)N3[C@@H]2SC(C)(C)[C@@H]3C(=O)O)c2ccccc2)C(=O)C1=O [piperacillin],MIC90,[5],≥ 64 mg/L
same,MIC90,[6],≥ 64 mg/L
CN[C@@H]1[C@@H](O)[C@@H](O[C@@H]2[C@@H](O)[C@H](O[C@H]3OC(CN)=CC[C@H]3N)[C@@H](N)C[C@H]2N)OC[C@]1(C)O [sisomycin],MIC PR3,[1],>64 mg/L
same,MIC PR1,[2],4 mg/L
same,MIC PAWT,[3],0.25 to 0.5 mg/L
same,MIC PR2,[4],>64 mg/L
same,MIC KPWT,[9],1 to 2 mg/L
CN[C@@H]1[C@H](O)[C@H](NC)[C@H]2O[C@@]3(O)C(=O)C[C@@H](C)O[C@H]3O[C@@H]2[C@H]1O [spectinomycin],MIC,[7],16 mg/L
same,MIC,[1],> 64 mg/L
same,MIC,[2],> 64 mg/L
same,MIC,[3],> 64 mg/L
same,MIC,[4],> 64 mg/L
same,MIC,[9],64 mg/L
same,MIC,[10],8 to 16 mg/L
[H]/N=C(/N)N[C@H]1[C@H](O)[C@@H](O)[C@H](O[C@@H]2O[C@@H](C)[C@](O)(C=O)[C@H]2O[C@@H]2O[C@@H](CO)[C@H](O)[C@@H](O)[C@@H]2NC)[C@@H](N/C(N)=N\[H])[C@@H]1O [streptomycin],MIC,[7],2 to 4 mg/L
same,MIC,[2],64 mg/L
same,MIC,[3],16 mg/L
same,MIC,[4],16 mg/L
same,MIC,[9],1 to 2 mg/L
same,MIC,[10],4 mg/L
NC[C@H]1O[C@H](O[C@H]2[C@H](O)[C@@H](O[C@H]3O[C@H](CO)[C@@H](O)[C@H](N)[C@H]3O)[C@H](N)C[C@@H]2N)[C@H](N)C[C@@H]1O [tobramycin],MIC,[7],0.25 mg/L
same,MIC,[1],> 64 mg/L
same,MIC,[2],2 mg/L
same,MIC,[3],0.25 mg/L
same,MIC90,[5],≥ 64 mg/L
same,MIC,[4],> 64 mg/L
same,MIC90,[6],≥ 64 mg/L
same,MIC,[9],8 mg/L
same,MIC,[10],1 mg/L
gentamycin,MIC ABWT,[7],0.25 to 0.5 mg/L
same,MIC PR3,[1],>64 mg/L
same,MIC PR1,[2],8 mg/L
same,MIC PAWT,[3],1 mg/L
same,MIC PR2,[4],>64 mg/L
same,MIC KPWT,[9],8 mg/L
same,MIC ECWT,[10],0.5 mg/L
